Experimental data reported in US12378224B2 (Dong-A Socio Holdings Co., Ltd., priority 2016, dated 2025).

Target: human MER (528-end) (Homo sapiens (Human), UniProt Q12866)
Assay: HTRF Kinase Activity Biochemical Assay (KinEASE-TK)
Conditions: 10 uM ATP
In short: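 Activity read-out is the HTRF ratio (665 nm over 620 nm emission, ×10,000; excitation 340 nm) after 1 h detection with 0.375 nM Eu3+-cryptate anti-TK antibody plus 0.062 uM SA-XL665. Preceding kinase step: human MER (528-end), biotinylated TK substrate, 1 h, room temperature.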

Sequence of human MER (528-end) (Q12866 528-999 limits assumed): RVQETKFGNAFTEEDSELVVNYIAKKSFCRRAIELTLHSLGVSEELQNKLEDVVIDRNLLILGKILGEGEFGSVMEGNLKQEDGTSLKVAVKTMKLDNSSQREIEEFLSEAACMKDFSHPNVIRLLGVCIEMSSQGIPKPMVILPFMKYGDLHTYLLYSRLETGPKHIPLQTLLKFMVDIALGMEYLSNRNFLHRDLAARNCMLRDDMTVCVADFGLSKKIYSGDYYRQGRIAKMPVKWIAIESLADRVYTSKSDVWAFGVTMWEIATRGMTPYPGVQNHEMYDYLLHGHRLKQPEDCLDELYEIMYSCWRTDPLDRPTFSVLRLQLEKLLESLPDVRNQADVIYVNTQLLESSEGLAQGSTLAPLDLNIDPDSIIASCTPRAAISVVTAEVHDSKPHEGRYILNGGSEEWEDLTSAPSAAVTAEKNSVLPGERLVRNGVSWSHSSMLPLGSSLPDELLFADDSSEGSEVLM

| Compound | IC50 [nM] |
| --- | --- |
| CS(=O)(=O)Nc1ccc(-c2cnc(N)c(C(=O)N[C@@H]3CCN(C(=O)c4ccc(-c5ccccc5Cl)cc4)C3)c2)cc1 [Example 576, (R)-2-amino-N-(1-(2′-chloro-[1,1′-biphenyl]-4-carbonyl)pyrrolidin-3-yl)-5-(4-(methylsulfonamido)phenyl)nicotinamide] | 100 to 1000 |
| Cn1cc(-c2cnc(N)c(C(=O)N[C@@H]3CCN(C(=O)Oc4ccc(Oc5ccc(CO)cc5)cc4)C3)c2)cn1 [Example 114, 4-(4-(hydroxymethyl)phenoxy)phenyl (R)-3-(2-amino-5-(1-methyl-1H-pyrazol-4-yl)nicotinamido)pyrrolidine-1-carboxylate] | 100 to 1000 |
| Cn1cc(-c2cnc(N)c(C(=O)N[C@@H]3CCN(C(=O)N[C@@H]4CCCC[C@H]4O)C3)c2)cn1 [Example 32, 2-amino-N—((R)-1-(((1R,2R)-2-hydroxycyclohexyl)carbamoyl)pyrrolidin-3-yl)-5-(1-methyl-1H-pyrazol-4-yl)nicotinamide] | > 1000 |
| Cn1cc(-c2cnc(N)c(C(=O)N[C@@H]3CCN(C(=O)c4ccc(-c5ccccc5)cc4)C3)n2)cn1 [Example 744, (R)—N-(1-([1,1′-biphenyl]-4-carbonyl)pyrrolidin-3-yl)-3-amino-6-(1-methyl-1H-pyrazol-4-yl)pyrazine-2-carboxamide] | 100 to 1000 |
| Cn1cc(-c2cnc(N)c(C(=O)N[C@@H]3CCN(C(=O)Nc4cccc(-c5cccc(CO)c5)c4)C3)c2)cn1 [Example 264, (R)-2-amino-N-(1-((3′-(hydroxymethyl)-[1,1′-biphenyl]-3-yl)carbamoyl)pyrrolidin-3-yl)-5-(1-methyl-1H-pyrazol-4-yl)nicotinamide] | 100 to 1000 |
| Cn1cc(-c2cnc(N)c(C(=O)N[C@@H]3CCN(c4ncc5ccccc5n4)C3)c2)cn1 [Example 137, (R)-2-amino-5-(1-methyl-1H-pyrazol-4-yl)-N-(1-(quinazolin-2-yl)pyrrolidin-3-yl)nicotinamide] | > 1000 |
| Nc1ncc(-c2cnn(C3CCNCC3)c2)cc1C(=O)NC1CCN(Cc2ccccc2)C1 (stereo not shown) [Example 152, 2-amino-N-(1-benzylpyrrolidin-3-yl)-5-(1-(piperidin-4-yl)-1H-pyrazol-4-yl)nicotinamide] | 100 to 1000 |
| Nc1ncc(Br)cc1C(=O)N[C@@H]1CCN(C(=O)Oc2cccc(-c3ccccc3)c2)C1 [Example 85, [1,1′-biphenyl]-3-yl (R)-3-(2-amino-5-bromonicotinamido)pyrrolidine-1-carboxylate] | > 1000 |
| Cn1cc(-c2cnc(N)c(C(=O)N[C@@H]3CCN(C(=O)Oc4ccc(Cl)c(Cl)c4)C3)c2)cn1 [Example 88, 3,4-dichlorophenyl (R)-3-(2-amino-5-(1-methyl-1H-pyrazol-4-yl)nicotinamido)pyrrolidine-1-carboxylate] | > 1000 |
| Cn1cc(-c2cnc(N)c(C(=O)N[C@@H]3CCN(C(=O)Oc4cccc5cccnc45)C3)c2)cn1 [Example 73, quinolin-8-yl (R)-3-(2-amino-5-(1-methyl-1H-pyrazol-4-yl)nicotinamido)pyrrolidine-1-carboxylate] | > 1000 |
| Cn1cc(-c2cnc(N)c(C(=O)N[C@@H]3CCN(C(=O)c4ccc(-c5cccc(CN)c5)cc4)C3)c2)cn1 [Example 727, (R)-2-amino-N-(1-(3′-(aminomethyl)-[1,1′-biphenyl]-4-carbonyl)pyrrolidin-3-yl)-5-(1-methyl-1H-pyrazol-4-yl)nicotinamide] | 10 to 100 |
| Cn1cc(-c2cnc(N)c(C(=O)N[C@@H]3CCN(C(=O)c4ccc(C#CCCO)cc4)C3)c2)cn1 [Example 553, (R)-2-amino-N-(1-(4-(4-hydroxybut-1-yn-1-yl)benzoyl)pyrrolidin-3-yl)-5-(1-methyl-1H-pyrazol-4-yl)nicotinamide] | > 1000 |
| Cn1cc(-c2cnc(N)c(C(=O)N[C@@H]3CCN(Cc4cccc(-c5ccc(CO)cc5)c4)C3)c2)cn1 [Example 244, (R)-2-amino-N-(1-((4′-(hydroxymethyl)-[1,1′-biphenyl]-3-yl)methyl)pyrrolidin-3-yl)-5-(1-methyl-1H-pyrazol-4-yl)nicotinamide] | 100 to 1000 |
| CN1CCC(COc2ccc(-c3ccc(C(=O)N4CC[C@@H](NC(=O)c5cc(-c6cnn(C)c6)cnc5N)C4)cc3)cc2)CC1 [Example 552, (R)-2-amino-5-(1-methyl-1H-pyrazol-4-yl)-N-(1-(4′-((1-methylpiperidin-4-yl)methoxy)-[1,1′-biphenyl]-4-carbonyl)pyrrolidin-3-yl)nicotinamide] | 100 to 1000 |
| CC(=O)Nc1ccc(-c2cnc(N)c(C(=O)N[C@@H]3CCN(C(=O)c4ccc(-c5ccc(F)cc5Cl)cc4)C3)c2)cn1 [Example 582, (R)-6′-acetamido-6-amino-N-(1-(2′-chloro-4′-fluoro-[1,1′-biphenyl]-4-carbonyl)pyrrolidin-3-yl)-[3,3′-bipyridine]-5-carboxamide] | 100 to 1000 |
| Cn1cc(-c2cnc(N)c(C(=O)N[C@@H]3CCN(C(=O)c4ccc(-c5ccc(C(=O)N6CCNCC6)cc5)cc4)C3)c2)cn1 [Example 467, (R)-2-amino-5-(1-methyl-1H-pyrazol-4-yl)-N-(1-(4′-(piperazine-1-carbonyl)-[1,1′-biphenyl]-4-carbonyl)pyrrolidin-3-yl)nicotinamide] | > 1000 |

| Compound | IC50 [nM] |
| --- | --- |
| Cn1cc(-c2cnc(N)c(C(=O)N[C@@H]3CCN(C(=O)Oc4cccc(-c5ccc(CN[C@H]6CCCNC6)cc5)c4)C3)c2)cn1 [Example 315, 4′-((((S)-piperidin-3-yl)amino)methyl)-[1,1′-biphenyl]-3-yl (R)-3-(2-amino-5-(1-methyl-1H-pyrazol-4-yl)nicotinamido)pyrrolidine-1-carboxylate] | 100 to 1000 |
| Nc1ncc(-c2ccc(CN3CCOCC3)cc2)cc1C(=O)N[C@@H]1CCN(C(=O)Nc2cccc(-c3ccccc3)c2)C1 [Example 38, (R)—N-(1-([1,1′-biphenyl]-3-ylcarbamoyl)pyrrolidin-3-yl)-2-amino-5-(4-(morpholinomethyl)phenyl)nicotinamide] | 10 to 100 |
| Cn1cc(-c2cnc(N)c(C(=O)N[C@H]3CCN(C(=O)Nc4ccccc4)C3)c2)cn1 [Example 27, (S)-2-amino-5-(1-methyl-1H-pyrazol-4-yl)-N-(1-(phenylcarbamoyl)pyrrolidin-3-yl)nicotinamide] | > 1000 |
| Cn1cc(-c2cnc(N)c(C(=O)N[C@@H]3CCN(C(=O)Nc4ccc(C(F)(F)F)cc4)C3)c2)cn1 [Example 6, (R)-2-amino-5-(1-methyl-1H-pyrazol-4-yl)-N-(1-((4-(trifluoromethyl)phenyl)carbamoyl)pyrrolidin-3-yl)nicotinamide] | > 1000 |
| Cn1cc(-c2cnc(N)c(C(=O)N[C@@H]3CCN(C(=O)Nc4ccc(-c5ccccc5)cc4)C3)c2)cn1 [Example 271, (R)—N -(1-([1,1′-biphenyl]-4-ylcarbamoyl)pyrrolidin-3-yl)-2-amino-5-(1-methyl-1H-pyrazol-4-yl)nicotinamide] | 100 to 1000 |
| COc1ccc(CN2CC[C@@H](NC(=O)c3cc(-c4cnn(C)c4)cnc3N)C2)c(OC)c1 [Example 220, (R)-2-amino-N-(1-(2,4-dimethoxybenzyl)pyrrolidin-3-yl)-5-(1-methyl-1H-pyrazol-4-yl)nicotinamide] | > 1000 |
| Cn1cc(-c2cnc(N)c(C(=O)N[C@@H]3CCN(C(=O)c4nc5ccccc5[nH]4)C3)c2)cn1 [Example 545, (R)—N-(1-(1H-benzo[d]imidazole-2-carbonyl)pyrrolidin-3-yl)-2-amino-5-(1-methyl-1H-pyrazol-4-yl)nicotinamide] | > 1000 |
| Cn1cc(-c2cnc(N)c(C(=O)N[C@@H]3CCN(C(=O)N4CCc5c(N)cccc5C4)C3)c2)cn1 [Example 28, (R)-2-amino-N-(1-(5-amino-1,2,3,4-tetrahydroisoquinoline-2-carbonyl)pyrrolidin-3-yl)-5-(1-methyl-1H-pyrazol-4-yl)nicotinamide] | > 1000 |
| Cn1cc(-c2cnc(N)c(C(=O)N[C@@H]3CCN(C(=S)Nc4cc(Cl)cc(Cl)c4)C3)c2)cn1 [Example 50, (R)-2-amino-N-(1-((3,5-dichlorophenyl)carbamothioyl)pyrrolidin-3-yl)-5-(1-methyl-1H-pyrazol-4-yl)nicotinamide] | 100 to 1000 |
| Nc1ncc(-c2ccc(F)c(F)c2)cc1C(=O)N[C@@H]1CCN(C(=O)Oc2cccc(-c3ccccc3)c2)C1 [Example 84, [1,1′-biphenyl]-3-yl (R)-3-(2-amino-5-(3,4-difluorophenyl)nicotinamido)pyrrolidine-1-carboxylate] | > 1000 |
| Cc1cc(C(=O)N2CC[C@@H](NC(=O)c3cc(-c4cnn(C)c4)cnc3N)C2)c(N)c(-c2ccccc2)c1 [Example 485, (R)-2-amino-N-(1-(2-amino-5-methyl-[1,1′-biphenyl]-3-carbonyl)pyrrolidin-3-yl)-5-(1-methyl-1H-pyrazol-4-yl)nicotinamide] | 100 to 1000 |
| Cc1ccc(C(=O)N2CC[C@@H](NC(=O)c3cc(-c4cnn(C)c4)cnc3N)C2)cc1-c1ccccc1Cl [Example 483, (R)-2-amino-N-(1-(2′-chloro-6-methyl-[1,1′-biphenyl]-3-carbonyl)pyrrolidin-3-yl)-5-(1-methyl-1H-pyrazol-4-yl)nicotinamide] | > 1000 |
| CC(C)(C)n1cc(-c2cnc(N)c(C(=O)N[C@@H]3CCN(C(=O)c4ccc(-c5ccccc5Cl)cc4)C3)c2)cn1 [Example 577, (R)-2-amino-5-(1-(tert-butyl)-1H-pyrazol-4-yl)-N-(1-(2′-chloro-[1,1′-biphenyl]-4-carbonyl)pyrrolidin-3-yl)nicotinamide] | 10 to 100 |
| CN1CCN(Cc2ccc(Oc3cccc(C(=O)N4CC[C@@H](NC(=O)c5cc(-c6cnn(C)c6)cnc5N)C4)c3)cc2)CC1 [Example 446, (R)-2-amino-5-(1-methyl-1H-pyrazol-4-yl)-N-(1-(3-(4-((4-methylpiperazin-1-yl)methyl)phenoxy)benzoyl)pyrrolidin-3-yl)nicotinamide] | > 1000 |
| CSc1ccc(C(=O)N2CC[C@@H](NC(=O)c3cc(-c4cnn(C)c4)cnc3N)C2)cc1 [Example 420, (R)-2-amino-5-(1-methyl-1H-pyrazol-4-yl)-N-(1-(4-(methylthio)benzoyl)pyrrolidin-3-yl)nicotinamide] | > 1000 |
